Tests used:
mandarins = assay: Visible appearance of vapor-treated mandarins; assay type: in vivo, mandarin
Procedure: Example 1. The antifungal activity of diallyl disulfide (DADS) vapor against Penicillium digitatum (Pd) was tested in mandarins. All samples were wounded by puncturing with a screw and infected by dispensing 1000 Pd spores suspended in 10 μL of water into each wound. The test groups consisted of mandarins that were: untreated; dipped in a solution of 1 g/L of imazalil; and exposed for 72 hours to the vapor of 3 mL of DADS in a Petri dish.
Example 2. The antifungal activity of allyl isothiocyanate (AITC) and DADS vapor was tested against Pd and Penicillium italicum (Pi) in mandarins. All samples were wounded by puncturing with a screw. Mandarins were infected by dispensing either 1000 Pd spores or 1000 Pi spores suspended in 10 μL into the wound. The test groups consisted of mandarins that were: uninfected and untreated; uninfected and treated by dipping in a solution of 1 g/L of imazalil; infected with Pd and untreated; infected with Pd and exposed to AITC; infected with Pd and exposed to DADS; infected with Pi and untreated; infected with Pi and exposed to AITC; and infected with Pi and exposed to DADS. Exposure to AITC or DADS consisted of exposing the mandarins for 72 hours to the vapor of 3 mL of the respective compound dispensed in a Petri dish. […] DADS vapor reduced the incidence of Pd mold by 85% and Pi mold by 30% compared to the respective untreated/infected test groups. […] Both AITC and DADS were effective at preventing fungal growth. The inhibition from AITC was approximately 100%, with some changes in visible appearance.
Example 3. The antifungal activity of a reduced dose of AITC vapor against Pd in mandarins was tested. All samples were wounded by puncturing with a screw. Mandarins were infected by dispensing 1000 Pd spores suspended in 10 μL of water into each wound. The test groups consisted of mandarins that were: uninfected and untreated; infected with Pd and untreated; and exposed to the vapor of 500 μL of AITC in a Petri dish for 72 hours.
Example 4. The antifungal activity of a range of AITC vapor concentrations was tested against Pd in mandarins. All mandarins were wounded by puncturing with a screw and infected by dispensing 1000 Pd spores suspended in 10 μL of water in each wound. The fruit was then placed in an airtight container, a range of AITC volumes were disposed onto a Whatman filter paper disc, the disc was suspended in front of a battery-powered fan, and the container closed for 18 hours. The mandarins were then left at ambient temperature and high humidity for 6 days. The test groups were mandarins that were infected and untreated, and infected and treated with 62.5 μL 125 μL 250 μL and 500 μL on the filter paper disc. […]
Example 5. […] The test groups were then left at ambient temperature, high humidity, and assessed for Pd mold after 6 days. […]

[1] = test system: Penicillium digitatum (Pd); assay: Antifungal activity of vapor against Penicillium digitatum (Pd) in wounded, infected mandarins; assay type: in vivo; details: for effect on Pd mold: Example 5, assessed after 6 days; for infected mandarins: Example 6
Botrytis cinerea (Bc) = assay: Antifungal activity of AITC vapor and coating agent against Botrytis cinerea (Bc) in strawberries; assay type: in vivo; details: Example 17; suspended strawberries; day 5

| SMILES | visible appearance of mandarins (mandarins; Example 1, 72 hours vapor of 3 mL) | visible appearance of mandarins (mandarins; Example 2, 72 hours vapor of 3 mL) | inhibition of fungal growth (Pd) ([1]; Example 2, mandarins, 72 hours vapor of 3 mL) | Pd mold growth ([1]; Example 4, doses of 125 μL, 250 μL & 500 μL, airtight container, 18 hours, 6 days) | effect on Pd mold ([1]; 125 μL (730 ppm), 30 min exposure) | effect on Pd mold ([1]; 125 μL, 1 hour exposure) | infected mandarins ([1]; 125 μL, 30 minutes, treated after 24 hours) [%] | infected mandarins ([1]; 125 μL, 30 minutes, treated after 48 hours) [%] | infected mandarins ([1]; 125 μL, 30 minutes, treated after 72 hours) [%] | infected mandarins ([1]; 125 μL, 30 minutes, treated after 96 hours) [%] | infected mandarins ([1]; 125 μL, 30 minutes, treated immediately after infection (0 hours)) [%] | effect on Pd infection at lower dose ([1]; Example 19, 62.5 μL (50% of the minimum inhibitory concentration), 30 minutes) | fruit with spotting and darkening of the peel (mandarins; Example 5, 125 μL, 2 hour treatment) [%] | visible appearance of mandarins (mandarins; in vivo) | reduction in incidence of mold versus untreated test group (Botrytis cinerea (Bc)) |
| --- | --- | --- | --- | --- | --- | --- | --- | --- | --- | --- | --- | --- | --- | --- | --- |
| C=CCSSCC=C [DADS, diallyl disulfide] | no visible degradation or discoloration | No difference in appearance | – | – | – | – | – | – | – | – | – | – | – | – | – |
| C=CCN=C=S [AITC, allyl isothiocyanate] | – | – | approximately 100% | substantially prevented the growth mold | greatly reduced severity of Pd mold infection | greatly reduced severity and incidence of Pd mold | 8.3 | 25 | 16.7 | 81.6 | 58.3 | tends to reduce the severity of infection, but not eliminate the incidence of infection | 62.5 | visibly darker than untreated fruit | over 80% |

From patent US20230292776A1, “GAS PHASE TREATMENT OF PRODUCE” (priority 2022, published 2023)
